These results are taken from patent publication US20150139959A1 (priority 2009, published 2015).

Series [1] can be described thus: 14-day daily gavage toxicity study, body and organ weights. Particulars: for Feed efficacy (Body weight gain/Food Consumption) / Final body weight: 14 days.
The test system of series [2] is 3T3 mouse fibroblasts. Format: cell-based.
Series [3] has as its system Caco-2 cells. It counts as cell-based, Human.

On to `CC1=C[C@H]2O[C@@H]3[C@H](O)C[C@](C)([C@@]2(CO)[C@H](O)C1=O)[C@]31CO1` [DON, Deoxynivalenol, reference compound], for which, in series [1] (2 mg/kg bw), the “Food Consumption during the 14 days” value came to 81.090 g and the “Feed efficacy (Body weight gain/Food Consumption)” value is listed as 0.0252. In series [2], the “BrdU bioassay IC50 (95% Confidence Interval)” value was 0.238 (0.162, 0.349) μg/mL. In series [3], the “MTT bioassay IC50 (95% Confidence Interval)” value is 0.409 (0.324, 0.518) μg/mL.
Consider `CC1=C[C@H]2O[C@@H]3[C@H](O)C[C@](C)([C@@]2(CO)[C@H](O)C1=O)[C@]31CO1` [3-epi-DON], for which, in series [1] (25 mg/kg bw), the “Food Consumption during the 14 days” value amounted to 85.860 g, the “Feed efficacy (Body weight gain/Food Consumption)” value is 0.0475 and the Final body weight is recorded as 21.390 g. Besides, in series [1] (100 mg/kg bw), the “Food Consumption during the 14 days” value stood at 85.760 g, the “Feed efficacy (Body weight gain/Food Consumption)” value came to 0.0413 and the Final body weight was found to be 21.680 g. For the same compound, the “BrdU bioassay IC50 (95% Confidence Interval)” value in series [2] is 281 (156, 505) μg/mL. In addition, in series [3], the “MTT bioassay IC50 (95% Confidence Interval)” value is on record as 146 (100, 212) μg/mL.
